Source: patent US20100179158A1, “INHIBITORS OF CYCLIC AMP PHOSPHODIESTERASES” (priority 2007, published 2010)
“Also recorded” adds a separate entry of the source.

Experiments:
[1] = target: T1, PDE4A1 (Mus musculus, UniProt O89084); experiment: cAMP assay in yeast strain expressing PDE4A1; format: cell-based, murine
T1 construct: targets used in the assays are full-length proteins (as opposed to simply the catalytic domain); expressed in transfected cells; host or cells: Schizosaccharomyces pombe, gene integrated at the cgs2 locus
T1 sequence (O89084 1-610 isoform O89084-2): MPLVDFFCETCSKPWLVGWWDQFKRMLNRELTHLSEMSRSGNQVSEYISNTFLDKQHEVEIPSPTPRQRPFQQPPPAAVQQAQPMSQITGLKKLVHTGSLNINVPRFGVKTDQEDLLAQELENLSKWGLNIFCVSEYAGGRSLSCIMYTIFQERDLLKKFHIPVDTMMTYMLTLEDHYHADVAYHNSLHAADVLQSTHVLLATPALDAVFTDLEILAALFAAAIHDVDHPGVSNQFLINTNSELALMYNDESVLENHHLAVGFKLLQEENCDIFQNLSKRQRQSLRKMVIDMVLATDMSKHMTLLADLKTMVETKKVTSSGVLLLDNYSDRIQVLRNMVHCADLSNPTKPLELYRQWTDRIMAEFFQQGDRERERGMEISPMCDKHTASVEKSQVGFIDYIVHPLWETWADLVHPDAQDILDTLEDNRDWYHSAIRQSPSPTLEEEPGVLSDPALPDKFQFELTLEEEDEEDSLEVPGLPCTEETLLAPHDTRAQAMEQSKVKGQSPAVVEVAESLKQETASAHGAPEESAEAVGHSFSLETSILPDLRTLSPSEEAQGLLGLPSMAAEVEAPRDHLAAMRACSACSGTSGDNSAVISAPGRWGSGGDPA

[2] = target: T2, PDE4D3 (Homo sapiens, UniProt Q08499); experiment: IC50 on PDE4D3; format: biochemical; details: read-out: IC50, PDE 4D3
T2 construct: targets used in the assays are full-length proteins (as opposed to simply the catalytic domain); expressed in transfected cells; host or cells: Schizosaccharomyces pombe, gene integrated at the cgs2 locus

[3] = target: T2, PDE4D3; experiment: cAMP assay in yeast strain expressing PDE4D3; format: cell-based
[4] = target: T3, PDE4A5 (Rattus norvegicus, UniProt P54748); experiment: cAMP assay in yeast strain expressing PDE4A5; format: cell-based
T3 construct: targets used in the assays are full-length proteins (as opposed to simply the catalytic domain); expressed in transfected cells; host or cells: Schizosaccharomyces pombe, gene integrated at the cgs2 locus
T3 sequence (P54748 1-844): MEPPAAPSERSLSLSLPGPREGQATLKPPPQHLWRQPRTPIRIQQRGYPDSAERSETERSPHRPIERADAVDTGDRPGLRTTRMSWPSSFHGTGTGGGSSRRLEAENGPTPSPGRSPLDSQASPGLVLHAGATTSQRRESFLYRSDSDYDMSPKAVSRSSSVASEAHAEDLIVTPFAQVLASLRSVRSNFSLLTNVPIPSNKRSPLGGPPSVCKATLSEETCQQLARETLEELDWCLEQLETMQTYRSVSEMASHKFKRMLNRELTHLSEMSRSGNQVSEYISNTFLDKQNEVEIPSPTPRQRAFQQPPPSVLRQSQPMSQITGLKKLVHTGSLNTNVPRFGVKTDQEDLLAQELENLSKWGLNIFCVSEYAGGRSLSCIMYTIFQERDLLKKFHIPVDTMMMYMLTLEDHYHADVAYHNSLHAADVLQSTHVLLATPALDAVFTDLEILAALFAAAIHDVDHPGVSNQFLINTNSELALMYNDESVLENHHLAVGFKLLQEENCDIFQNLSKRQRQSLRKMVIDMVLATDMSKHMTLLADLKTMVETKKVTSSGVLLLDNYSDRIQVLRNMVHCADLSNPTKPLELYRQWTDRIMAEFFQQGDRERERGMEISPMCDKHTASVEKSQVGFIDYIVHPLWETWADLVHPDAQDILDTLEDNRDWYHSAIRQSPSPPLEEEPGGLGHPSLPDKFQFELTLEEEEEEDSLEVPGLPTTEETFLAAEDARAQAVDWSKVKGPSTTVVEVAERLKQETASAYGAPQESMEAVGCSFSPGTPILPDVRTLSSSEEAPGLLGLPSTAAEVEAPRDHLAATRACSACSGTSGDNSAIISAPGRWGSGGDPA

[5] = tested on: PDE4A, PDE4B, PDE4D, PDE7A; experiment: Overall PDE inhibitor profile from the yeast assays (table footnotes, summary); format: cell-based
Text: PDE inhibitors were identified using methods described herein, such as high throughput drug screens on genetically engineered fission yeast strains that express drug targets (e.g., PDE4A and/or PDE4B, which are anti-inflammatory targets). PDE inhibitors were identified based on their ability to stimulate growth and compounds were identified because they were effective in live cells. In addition, targets used in the assays are full-length proteins (as opposed to simply the catalytic domain) and the assay used included a built-in toxicity test, permeability test and stability test. The inhibitors identified display a very high degree of target specificity. Compounds identified include inhibitors that act on two of three PDE4 family enzymes and inhibitors that act on combinations of PDE4 and PDE7 strains. […] Limited inhibition of PDE4D by a PDE inhibitor is desirable, in view of the fact that inhibition of PDE4D causes emesis and cardiac arrhythmias. Subtype specificity was confirmed by means of cAMP assays.
Cells were pregrown in EMM medium [MP Biomedicals (Solon, OH), 3% glucose, filter-sterilized to avoid carmelization, which would introduce variability into the optical density of the medium] containing from 0 mM to 2.5 mM cAMP (or either 0.5 mM or 1.0 mM cGMP). This was to repress expression of the fbp1-ura4 reporter prior to exposure of cells to 5FOA medium. Cells were grown at 30° C. to exponential phase (approximately 10^7 cells/ml). Cells were collected by centrifugation and resuspended in 5FOA medium, and 25 μl were transferred to 384-well microtiter dishes (untreated, with flat clear bottoms) that had been pre-filled with 25 μl 5FOA medium and pre-pinned with 100 nl of compounds (stock solutions were generally 10 mM). Starting cell concentrations ranged from 0.5×10^5 to 4×10^5 cells/ml depending on the screening strain. […] Other positive control dishes contained 5 mM cAMP in the 5FOA medium for PDEs that lack appropriate control compounds. Cultures were grown for 48 hours at 30° C., sealed in an airtight container with moist paper towels to prevent evaporation. Optical densities (OD600) of cultures were measured using a microplate reader. Bioinformatic analysis of the results to determine composite Z scores was performed as previously described (1, 3).

[6] = target: T4, PDE4D2 (Homo sapiens, UniProt Q08499); experiment: cAMP assay in yeast strain expressing PDE4D2; format: cell-based
T4 construct: targets used in the assays are full-length proteins (as opposed to simply the catalytic domain); expressed in transfected cells; host or cells: Schizosaccharomyces pombe

[7] = target: T5, PDE4B3 (Mus musculus, UniProt Q8VBU5); experiment: cAMP assay in yeast strain expressing PDE4B3; format: cell-based, murine
T5 construct: targets used in the assays are full-length proteins (as opposed to simply the catalytic domain); expressed in transfected cells; host or cells: Schizosaccharomyces pombe, gene integrated at the cgs2 locus
T5 sequence (Q8VBU5 1-721): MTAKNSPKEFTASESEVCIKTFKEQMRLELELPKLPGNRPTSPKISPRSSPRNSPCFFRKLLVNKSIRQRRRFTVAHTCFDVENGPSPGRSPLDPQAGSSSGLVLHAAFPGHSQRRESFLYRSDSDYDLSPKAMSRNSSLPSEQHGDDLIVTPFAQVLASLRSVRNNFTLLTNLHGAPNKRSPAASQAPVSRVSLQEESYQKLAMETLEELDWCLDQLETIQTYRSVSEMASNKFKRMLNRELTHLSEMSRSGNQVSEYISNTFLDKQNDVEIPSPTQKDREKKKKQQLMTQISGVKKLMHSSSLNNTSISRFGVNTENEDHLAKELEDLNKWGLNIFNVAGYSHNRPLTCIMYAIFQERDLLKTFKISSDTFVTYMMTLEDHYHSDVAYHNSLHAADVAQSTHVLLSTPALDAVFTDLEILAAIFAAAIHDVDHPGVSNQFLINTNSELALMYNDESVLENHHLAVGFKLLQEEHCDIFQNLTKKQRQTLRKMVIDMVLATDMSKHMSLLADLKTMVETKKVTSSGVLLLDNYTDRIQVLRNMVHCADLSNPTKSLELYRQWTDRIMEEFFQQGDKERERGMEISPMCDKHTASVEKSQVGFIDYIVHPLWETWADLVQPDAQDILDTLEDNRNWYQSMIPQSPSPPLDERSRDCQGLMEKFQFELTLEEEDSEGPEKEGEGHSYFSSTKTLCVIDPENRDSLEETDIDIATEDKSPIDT

[8] = target: T1, PDE4A1; experiment: IC50 on PDE4A1; format: biochemical, murine; details: read-out: IC50, PDE 4A1

T2 sequence (Q08499 1-673 isoform Q08499-2): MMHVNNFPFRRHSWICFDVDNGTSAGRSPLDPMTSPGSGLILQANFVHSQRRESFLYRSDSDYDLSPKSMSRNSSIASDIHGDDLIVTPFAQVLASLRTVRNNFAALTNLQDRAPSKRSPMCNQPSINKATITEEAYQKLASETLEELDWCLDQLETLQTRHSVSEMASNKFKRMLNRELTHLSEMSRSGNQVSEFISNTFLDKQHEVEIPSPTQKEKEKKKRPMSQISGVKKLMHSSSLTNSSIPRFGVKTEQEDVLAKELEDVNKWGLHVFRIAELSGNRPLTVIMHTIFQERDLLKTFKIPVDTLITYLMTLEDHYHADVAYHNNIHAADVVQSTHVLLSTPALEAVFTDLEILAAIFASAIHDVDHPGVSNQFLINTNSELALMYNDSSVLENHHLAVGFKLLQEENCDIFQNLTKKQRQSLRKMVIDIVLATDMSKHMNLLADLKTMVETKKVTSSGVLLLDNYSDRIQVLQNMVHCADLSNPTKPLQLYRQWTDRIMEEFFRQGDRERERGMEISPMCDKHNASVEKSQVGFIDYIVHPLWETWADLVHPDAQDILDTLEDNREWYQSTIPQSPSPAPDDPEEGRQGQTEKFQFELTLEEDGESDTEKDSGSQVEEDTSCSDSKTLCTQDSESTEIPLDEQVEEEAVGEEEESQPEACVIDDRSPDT
T4 sequence (Q08499 303-809): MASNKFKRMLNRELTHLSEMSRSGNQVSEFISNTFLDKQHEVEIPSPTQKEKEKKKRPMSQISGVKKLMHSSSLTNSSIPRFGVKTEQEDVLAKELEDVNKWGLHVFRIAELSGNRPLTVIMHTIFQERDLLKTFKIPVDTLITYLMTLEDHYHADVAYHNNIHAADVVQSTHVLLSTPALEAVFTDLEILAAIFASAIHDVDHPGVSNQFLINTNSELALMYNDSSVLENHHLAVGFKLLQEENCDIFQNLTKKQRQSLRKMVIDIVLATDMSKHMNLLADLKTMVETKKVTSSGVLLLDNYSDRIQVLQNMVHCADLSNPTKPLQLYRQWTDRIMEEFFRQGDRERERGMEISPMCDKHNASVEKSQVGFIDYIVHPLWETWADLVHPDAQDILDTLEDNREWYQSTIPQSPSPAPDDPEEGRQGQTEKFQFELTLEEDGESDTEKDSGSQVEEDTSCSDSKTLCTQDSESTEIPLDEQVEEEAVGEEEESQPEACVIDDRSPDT

cAMP Response (% rolipram), PDE 4A1 [1]: 96.00 % rolipram | IC50 [2]: 500 nM | cAMP Response (% rolipram), PDE 4D3 [3]: 14.00 % rolipram | cAMP Response (% rolipram), PDE 4A5 [4]: 57.30 % rolipram | cAMP Response (% rolipram), PDE 4D2 [6]: ND ND ND 17.00 ND % rolipram | cAMP Response (% rolipram), PDE 4B3 [7]: 92.00 % rolipram | IC50 [8]: 500 nM
SMILES: Cc1cc(C)nc(SCCS(=O)(=O)c2ccc(C(C)(C)C)cc2)n1 [Compound 26]
PDE inhibitor profile in words (table footnote / summary) [5]: effective PDE4A/4B inhibitor that exhibits limited/essentially no inhibition of PDE4D; also recorded: effective PDE4A/4B inhibitor; also recorded: little or no inhibition of PDE4D; also recorded: (1) Strong PDE4A, 4B inhibitor
